In PubChem BioAssay AID977606 (Broad Institute, 2014):
The source made the active and inactive calls. The rule behind the calls is not given here.

Tested on: INS-1E Gaussia luciferase insulin secretion, no glucose, luminescence
Assay: insulin secretion activators without glucose, dose response, counter-screen for glucose-dependent insulin secretion activators, cell-based, INS-1E, Gaussia luciferase, luminescence, cherry-pick (AID 977606)

| SMILES | AC40 |
| --- | --- |
| CC(C)(C)c1ccc(OCC(=O)Nc2ccc(-c3nc4cccnc4o3)cc2)cc1 | 7.74 µM |
| COc1ccccc1CCn1cnc(-c2cccc(F)c2)c1C(C)C | 11.6 µM |
| CC(=O)c1nn(-c2ccc(Br)cc2)cc1C(=O)c1ccccc1 | 22.1 µM |
| NS(=O)(=O)c1ccc(CCNc2nc3c(-c4cccc(F)c4)nnn3c3ccccc23)cc1 | 2.03 µM |
| COc1ccccc1C(=O)Nc1c2c(nn1-c1cccc(C)c1C)CS(=O)(=O)C2 | 13 µM |
| COc1cc(CN2[C@@H]3CNC[C@H]2C3c2ccc(/C=C/c3ccccc3)cc2)cc(OC)c1 (some centres not stated) | 9.7 µM |
| Oc1ccccc1-c1cc(C(F)(F)C(F)F)nc(-c2ccccc2)n1 | 3.86 µM |
| CCC(=O)Nc1ccc(NC(=S)NC(=O)c2oc3ccccc3c2C)cc1 | 3.36 µM |
| Nn1c(-c2ccccc2)cc(-c2ccccc2)cc1=O | > 35 µM (inactive) |
| COc1cc2sc3ccc(C#Cc4ccc(N)cc4)cc3c(=O)c2cc1OC | 19 µM |
| CC(C)(C)OC(=O)N[C@@H](Cc1ccccc1)c1nnc(S(=O)(=O)Cc2ccccc2)o1 | 2.63 µM |
| CS(=O)(=O)c1cnc(-c2ccccc2)nc1Oc1ccc(F)cc1 | 10.9 µM |
| CCOc1ccc(CN2C(=O)c3ccccc3C2=O)cc1C(=O)Nc1nnc(SCC)s1 | 5.71 µM |
| O=c1c2ccc(F)cc2sn1-c1ccccc1 | 1.45 µM |
| CC(=O)Oc1ccccc1C(=O)OCCN=C1NS(=O)(=O)c2ccccc21 | > 35 µM (inactive) |
| CS(=O)(=O)c1ccc2nc(NC(=O)Nc3ccc(Cl)c(Cl)c3)sc2c1 | 1.92 µM |
| CCOC(=O)c1c(-c2ccc(-c3ccccc3)cc2)csc1NC(=O)CNCCN(C)C | 5.75 µM |
| Cc1cc(C)nc(Nc2n[nH]c(COc3ccc4ccccc4c3)n2)n1 | 6.18 µM |
| Cn1c(=O)oc2cc(S(=O)(=O)N3CCC(C(=O)Nc4ccc(OC(F)(F)F)cc4)CC3)ccc21 | 5.04 µM |
| CC(NC(=O)COC(=O)c1ccccc1Nc1ccccc1)c1ccccc1 (configuration not stated) | 12.1 µM |
| CCCCc1ccc(NC(=O)COc2ccc(C(=O)Nc3ccccc3OCC)cc2)cc1 | 1.3 µM |
| Cc1cc(C)cc(OCCCN2CCC(C(O)(c3ccccc3)c3ccccc3)CC2)c1 | 6.87 µM |

| SMILES | AC40 |
| --- | --- |
| NS(=O)(=O)c1ccc(NC(=O)COC(=O)c2cn(-c3ccccc3)nc2-c2ccc(F)cc2)cc1 | 4.09 µM |
| C=CCNC(=S)N/N=C/c1ccc(-c2cc(Cl)ccc2Cl)o1 | 4.34 µM |
| Cc1ccc(-c2cc(C(=O)NCc3cnn(C)c3)c3cc(Br)ccc3n2)cc1 | 1.24 µM |
| CCOC(=O)c1c(-n2cnnn2)sc2c1CCCC2 | > 35 µM (inactive) |
| Fc1cccc(-c2ccc(C3[C@@H]4CN(Cc5ccccc5F)C[C@H]3N4)cc2)c1 (some centres not stated) | 6.11 µM |
| CC1CN(Cc2ccccc2)C(=S)NC1=O (configuration not stated) | 28.6 µM |
| O=C(Nc1ccc2c(c1)OCO2)c1sc2cc(Cl)ccc2c1Cl | 4.98 µM |
| O=c1c2ccccc2sn1-c1ccccc1F | 1.22 µM |
| CC(=O)Oc1ccc(Cl)cc1/C=C/c1ccc2ccccc2n1 | 9.46 µM |
| CC(C)C[C@H](NC(=O)c1[nH]cnc1C(=O)N[C@@H](C)c1ccccc1)C(=O)OC(C)(C)C | 20 µM |
| Cc1c(C(=O)OCC(=O)N2CC(=O)Nc3ccccc32)oc2ccc(Br)cc12 | 5.24 µM |
| COc1cc(OC)c2c3c(c(C4CCCCC4)nc2c1)CCC3 | 7.44 µM |
| O=C(OCC12CC3CC(CC(C3)C1)C2)c1ccc(NCc2cc(O)ccc2O)cc1 | 9.2 µM |
| Cc1ccc(-n2ncc3c(=O)n(CC(=O)Nc4cccc(Cl)c4)cnc32)cc1C | 6.76 µM |
| CCOc1ccc(Nc2oc(-c3ccc(Cl)cc3)nc2C#N)cc1 | 5.43 µM |
| CCOc1ccc(-c2nnn(CC(=O)Nc3ccccc3OC)n2)cc1OCC | 7.27 µM |
| Cc1cc(C)c2c(C)nn(C3CCCCC3)c2n1 | > 35 µM (inactive) |
| Cc1ncc(N=Nc2ccc(F)cc2)c(-c2ccc(Cl)cc2)n1 | 8.66 µM |
| COC(=O)C1=C(C)N(Cc2cccc(C(F)(F)F)c2)C(=NCc2ccc(OC)cc2)NC1c1ccc(F)cc1 (configuration not stated) | 8.44 µM |
| CC(C)CC#Cc1ccc2c(c1)O[C@@H](CN(C)Cc1cccc(F)c1)[C@H](C)CN([C@@H](C)CO)S2(=O)=O | 12.7 µM |
| Cc1nn(-c2ccccc2)c2nc(C(F)F)cc(C(F)F)c12 | 30.4 µM |
| COC(=O)c1ccc2c(c1)NC(=O)C(N(CC(C)C)CC(C)C)S2 (configuration not stated) | 2.51 µM |

| SMILES | AC40 |
| --- | --- |
| COc1ccc(S(=O)(=O)N2CCc3ccccc32)cc1C(=O)Nc1ccc(C(N)=O)cc1 | 6.44 µM |
| C[C@H](CO)N1C[C@H](C)[C@@H](CN(C)C(=O)Cc2ccccn2)Oc2cc(C#C[C@@H](C)O)ccc2S1(=O)=O | 18 µM |
| N/C(=N\OC(=O)COc1ccc(Cl)cc1Cl)c1cccnc1 | 19.3 µM |
| CCCCc1c(-c2ccccc2OC)ncn1Cc1ccccc1C | 11.3 µM |
| CN(C)CCOc1ccc(-c2c(-c3ccsc3)sc3ccccc23)cc1 | 5.7 µM |
| CCCNC(=O)c1nnsc1S(=O)c1ccc(Cl)cc1 (configuration not stated) | 1.16 µM |
| Cc1nn(Cc2ccc(Cl)cc2Cl)c(Cl)c1C(=O)Nc1ccc(OC(F)F)cc1 | 5.64 µM |
| OC(c1ccccc1)(c1ccccc1)C1CCN(CCCOc2ccc(-c3ccc(F)cc3F)cc2)CC1 | 1.29 µM |
| Cc1cc(C(F)F)n2ncc(C(=O)NCc3ccc(F)cc3)c2n1 | > 35 µM (inactive) |
| O=C(Nc1nnc(-c2ccc(F)cc2)s1)C1CCN(S(=O)(=O)c2ccc(Cl)cc2)CC1 | 5.13 µM |
| Cc1cc(C)n(-c2nc(NCCN(C)C)c3c4c(sc3n2)CCCC4)n1 | 10.7 µM |
| COC(=O)c1ccc(C(=O)Nc2cc(Cl)ccc2Cl)cc1NC(=O)c1ccccc1C | 1.39 µM |
| COc1cc(CN2C[C@@H]3N[C@H](C2)C3c2ccc(/C=C/c3ccccc3)cc2)cc(OC)c1 (some centres not stated) | 1.76 µM |
| Cc1ccc(-n2sc3cc(F)ccc3c2=O)c(C)c1 | 0.883 µM |
| CC(C)CC(NC(=O)c1ccc(Cl)cc1)C(=O)OCC(=O)c1ccc2c(c1)NC(=O)CO2 (configuration not stated) | 2.04 µM |
| Cc1ccc(NC(=O)CNC(=O)c2sc3ccccc3c2Cl)nc1 | 10.3 µM |
| CN(C)C=NC(=O)c1ccc(N2CCN(c3ncc(C(F)(F)F)cc3Cl)CC2)cc1 | 5.6 µM |
| Cc1cc(NC(=O)c2cc(-c3cccc(Cl)c3)on2)no1 | 20.7 µM |
| CC1CCC(C(C)C)C(OCC(O)CNC(C)c2ccccc2)C1 (configuration not stated) | 11.8 µM |
| COc1ccc(C[C@H]2CN3C(=NC[C@@H]3Cc3ccccc3)N2CCNC(=O)CCC2CCCCC2)cc1 | 13.5 µM |
| O[C@H]1C[C@H](c2ccccc2)N(CC2CCCCC2)C[C@@H]1n1cc(C2CC2)nn1 | 8.64 µM |
| c1ccc(Cn2nnc3c(N4CCc5ccccc54)ncnc32)cc1 | 6.35 µM |

| SMILES | AC40 |
| --- | --- |
| COc1ccc(S(=O)(=O)N2CCc3ccccc32)cc1C(=O)Nc1cccnc1 | 16.3 µM |
| O=C(Nc1ccc(F)cc1)Nc1cc(OCC(F)(F)F)cc(OCC(F)(F)F)c1 | 5.78 µM |
| CCOC(=O)Nc1cccc(OCC(=O)Nc2ccc3c(c2)CCC3)c1 | 8.25 µM |
| Cc1ccc(-n2cc(CNCCCn3ccnc3C)c(-c3ccc(F)cc3)n2)cc1 | 30.7 µM |
| Cc1ccc(C(=O)Oc2ccc(-c3nccc(-c4ccccn4)n3)cc2)cc1 | 5.1 µM |
| CCCCc1c(-c2ccccc2OC)ncn1C(C)c1ccc(Cl)cc1 (configuration not stated) | 7.72 µM |
| CCOC(=O)Cn1c(=NC(=O)c2nc3ccccc3s2)sc2cc(S(N)(=O)=O)ccc21 | 18.3 µM |
| CCCCc1c(-c2cccc(OC)c2)ncn1CCc1ccccc1OC | 7.6 µM |
| N#Cc1cccc(-c2ccc([C@@H]3[C@@H]4CN(S(=O)(=O)c5ccc(-c6ccccc6)cc5)C[C@H]3N4)cc2)c1 | 1.89 µM |
| CCCCc1c(-c2ccccc2F)ncn1CCc1ccccc1OC | 9.38 µM |
| N#Cc1nccnc1S(=O)(=O)c1cccs1 | 0.355 µM |
| COc1ccccc1CCn1cnc(-c2ccc(F)cc2)c1CC(C)C | 6.41 µM |
| CN(C)S(=O)(=O)c1cccc(-n2sc3ccccc3c2=O)c1 | 2.58 µM |
| CCc1ccc(OCC(=O)NC(=S)Nc2ccc(F)cc2)c(Br)c1 | 6.76 µM |
| CC(C)(C(=O)N1CCC1(C)C(=O)NS(=O)(=O)c1ccc(Br)cc1)c1ccccc1 (configuration not stated) | 10.3 µM |
| CCCCc1c(-c2ccccc2OC)ncn1Cc1ccc(C)cc1 | 11.9 µM |
| C=CCNc1nc(Cl)nc(Nc2ccc(OC)cc2)n1 | 11.3 µM |
| Cc1ccc2nc(-c3ccc(NC(=O)COC(=O)c4ccco4)cc3)sc2c1 | 3.8 µM |
| Cc1ccccc1Cn1ccc(NC(=O)c2cc3nc(-c4ccco4)cc(C(F)(F)F)n3n2)n1 | 7.7 µM |
| COc1ccc2nc3ccccc3nc2c1NC(=O)c1ccc(Cl)cc1Cl | 5.1 µM |
| O=C(Nc1cccc(Cl)c1)Nc1nc(-c2ccc(Cl)cc2)cs1 | > 35 µM (inactive) |
| O=C(NCCC1=CCCCC1)C(=O)NCC(c1ccco1)N1CCN(c2ccccc2)CC1 (configuration not stated) | 3.54 µM |

| SMILES | AC40 |
| --- | --- |
| Clc1ccc(-c2ccnc(Oc3cc(Cl)ccc3Cl)n2)cc1 | 6.7 µM |
| O=C(Nc1ccc(Cl)c(Cl)c1)Nc1nc(-c2ccccc2)cs1 | 4.07 µM |
| COc1cc2ccccc2cc1C(=O)Nc1ccc2oc(=O)ccc2c1 | 9.12 µM |
| Cc1cc(C)cc(NC(=O)Cc2ccc(-n3cccc3)cc2)c1 | 6.9 µM |
| O=C(CCN1CCOCC1)c1ccccc1 | 10.3 µM |
| COc1ccc(C(=O)c2sc(Nc3ccccc3)nc2N)cc1OC | 26.5 µM |
| CCOC(=O)c1cc2sccc2n1CC(=O)N1c2ccccc2CC1C (configuration not stated) | 5.99 µM |
| FC(F)(F)c1cc(CCN2CCNC[C@H]2Cc2cccc3ccccc23)cc(C(F)(F)F)c1 | 3.69 µM |
| C(=C\c1ccc(C2[C@@H]3CN(Cc4nccs4)C[C@H]2N3)cc1)/c1ccccc1 (some centres not stated) | 9.48 µM |
| COC(=O)C1=C(C)N(Cc2cccc(C(F)(F)F)c2)C(=NCc2ccc(OC)cc2)NC1c1cccc(Cl)c1 (configuration not stated) | 5.16 µM |
| CN(C)c1ncnc2sc(-c3ccccc3)cc12 | 30.3 µM |
| OC(c1ccccc1)(c1nc(-c2cccc(C(F)(F)F)c2)cs1)C(F)(F)F (configuration not stated) | 10.1 µM |
| Cc1cccc(C(C)C)c1NC(=O)COC(=O)c1cccc(S(=O)(=O)N2CCc3ccccc3C2)c1 | 6.65 µM |
| Cc1ccc(C)c(OCC(=O)Nc2nonc2NC(=O)COc2cc(C)ccc2C)c1 | 3.38 µM |
| Cc1ccc(F)cc1-c1nc(NC(C)C)nc2cc(-c3ccccc3)sc12 | 13.6 µM |
| COC(=O)C1=C(C)N(Cc2cccc(C(F)(F)F)c2)C(=NCc2ccc3c(c2)OCO3)NC1CCc1ccccc1 (configuration not stated) | 6.1 µM |
| CCOC(=O)[C@]12Cc3c(cc(OC)c(OC)c3OC)[C@H]1N(C1CCCCC1)C(=O)c1cc(OC)ccc12 | 6 µM |
| CCOC(=O)[C@]12Cc3cc(OC)ccc3[C@H]1N(C1CCCCC1)C(=O)c1cc(OC)ccc12 | 11.7 µM |
| CC(C)Cn1nc(-c2ccccc2)c2ccccc2c1=O | 8.13 µM |
